According to patent US8987195B2 (priority 2012, dated 2015):
Like-named read-outs stand apart in the source and are kept apart here.

Assays:
[1] = target: HCV NS3/4A protease genotype 1b (Hepatitis C virus genotype 1b, UniProt P26663); test: HCV NS3/4A protease time-resolved fluorescence (TRF) assay, Ki against genotype 1b; format: biochemical
Method in brief: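 Ki was converted from fitted IC50 using IC50=Ki(1+[S]/KM) and 25 nM substrate. Protease (genotype 1b 0.2 nM, A156T 0.4 nM, 3a 0.025 nM) and compound were pre-mixed 30 min in pH 7.5 HEPES/NaCl/glycerol/DTT buffer. Cleavage then proceeded 2.5 h at room temperature, detected by time-resolved europium fluorescence (340/615 nm).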

HCV genotype 1b replicon = test: HCV replicon assay, genotype 1b replicon EC50; format: cell-based, Hepatitis C virus; conditions: Hepatitis C virus, read-out: EC50 [gt-1b]
Method in brief: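 Stable neomycin-selected genotype 1b replicon cells, some carrying luciferase:Neo^r fusion, plated without G418 with a compound dilution series and incubated 24-48 h. Read-out was RNA (^32P-probe protection or TaqMan, normalized to cyclophilin A) or luciferase activity. EC50 from four-parameter fit as percent of DMSO control.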

[2] = IC50 [gt-1b] (nM), NS3/4A genotype 1b, enzyme 0.2 nM, K+ salt
[3] = IC50 [gt-1b] (nM), NS3/4A genotype 1b, enzyme 0.2 nM
[4] = IC50 [gt-1b] (nM), NS3/4A genotype 1b, enzyme 0.2 nM, HCOOH salt
[5] = genotype 1b replicon, HCOOH salt

| Compound | IC50 [1, 2] [nM] | EC50 (HCV genotype 1b replicon; genotype 1b replicon, K+ salt) [nM] | IC50 [1, 3] [nM] | EC50 (HCV genotype 1b replicon; genotype 1b replicon) [nM] | further results |
| --- | --- | --- | --- | --- | --- |
| Cc1nc2ccc(Cl)cc2c2c1O[C@]1(CC2)C[C@H]2C(=O)N[C@]3(C(=O)NS(=O)(=O)C4(C)CC4)C[C@H]3/C=C\CCCCC[C@H](NC(=O)OC3CCCC3)C(=O)N2C1 [Example 182, cyclopentyl [(2R,6S,12Z,13aS,14aR,16aS)-9′-chloro-5′-methyl-14a-{[(1-methylcyclopropyl)sulfonyl]carbamoyl}-5,16-dioxo-1,1′,2′,5,6,7,8,9,10,11,13a,14,14a,15,16,16a-hexadecahydrospiro[cyclopropa[e]pyrrolo[1,2-a][1,4]diazacyclopentadecine-2,3′-pyrano[2,3-c]quinolin]-6-yl]carbamate] | 0.009 | 1.7 |  |  |  |
| CC1(S(=O)(=O)NC(=O)[C@@]23C[C@H]2/C=C\CCCCC[C@H](NC(=O)OC2CCCC2)C(=O)N2C[C@@]4(CCc5c(c(C6CC6)nc6ccc7c(c56)OCO7)O4)C[C@H]2C(=O)N3)CC1 [Example 323, cyclopentyl [(2R,6S,12Z,13aS,14aR,16aS)-7′-cyclopropyl-14a-{[(1-methylcyclopropyl)sulfonyl]carbamoyl}-5,16-dioxo-1,5,6,7,8,9,10,10′,11,11′,13a,14,14a,15,16,16a-hexadecahydrospiro[cyclopropa[e]pyrrolo[1,2-a][1,4]diazacyclopentadecine-2,9′-[1,3]dioxolo[4,5-f]pyrano[2,3-c]quinolin]-6-yl]carbamate] |  |  | 0.012 | 11.4 |  |
| COc1ccc2nc(C(F)(F)F)c3c(c2c1)CC[C@]1(C[C@H]2C(=O)N[C@]4(C(=O)NS(=O)(=O)C5(C)CC5)C[C@H]4/C=C\CCCCC[C@H](NC(=O)OC4(C(C)C)CC4)C(=O)N2C1)O3 [Example 449, 1-(propan-2-yl)cyclopropyl [(2R,6S,12Z,13aS,14aR,16aS)-9′-methoxy-14a-{[(1-methylcyclopropyl)sulfonyl]carbamoyl}-5,16-dioxo-5′-(trifluoromethyl)-1,1′,2′,5,6,7,8,9,10,11,13a,14,14a,15,16,16a-hexadecahydrospiro[cyclopropa[e]pyrrolo[1,2-a][1,4]diazacyclopentadecine-2,3′-pyrano[2,3-c]quinolin]-6-yl]carbamate] |  |  |  |  | IC50 ([1]; IC50 [gt-1b], NS3/4A protease TRF assay, genotype 1b enzyme 0.2 nM): 0.007 nM; EC50 (HCV genotype 1b replicon; HCV replicon, genotype 1b): 1.39 nM |
| CC(C)(C)COC(=O)N[C@H]1CCCCC/C=C\[C@@H]2C[C@@]2(C(=O)NS(=O)(=O)C2(C)CC2)NC(=O)[C@@H]2C[C@]3(CCc4c(c(C(F)(F)F)nc5ccc(OCCN6CCOCC6)cc45)O3)CN2C1=O [Example 472, 2,2-dimethylpropyl [(2R,6S,12Z,13aS,14aR,16aS)-14a-{[(1-methylcyclopropyl)sulfonyl]carbamoyl}-9′-[2-(morpholin-4-yl)ethoxy]-5,16-dioxo-5′-(trifluoromethyl)-1,1′,2′,5,6,7,8,9,10,11,13a,14,14a,15,16,16a-hexadecahydrospiro[cyclopropa[e]pyrrolo[1,2-a][1,4]diazacyclopentadecine-2,3′-pyrano[2,3-c]quinolin]-6-yl]carbamate] |  |  |  |  | IC50 ([1]; IC50 [gt-1b], NS3/4A protease TRF assay, genotype 1b enzyme 0.2 nM, HCl salt): 0.02 nM; EC50 (HCV genotype 1b replicon; HCV replicon, genotype 1b, HCl salt): 3.43 nM |
| COc1ccc2c3c(c(C4CC4)nc2c1)O[C@]1(CC3)C[C@H]2C(=O)N[C@]3(C(=O)NS(=O)(=O)C4(C)CC4)C[C@H]3/C=C\CCCCC[C@H](NC(=O)OC3(C)CC3)C(=O)N2C1 [Example 135, 1-methylcyclopropyl [(2R,6S,12Z,13aS,14aR,16aS)-5′-cyclopropyl-8′-methoxy-14a-{[(1-methylcyclopropyl)sulfonyl]carbamoyl}-5,16-dioxo-1,1′,2′,5,6,7,8,9,10,11,13a,14,14a,15,16,16a-hexadecahydrospiro[cyclopropa[e]pyrrolo[1,2-a][1,4]diazacyclopentadecine-2,3′-pyrano[2,3-c]quinolin]-6-yl]carbamate] | 0.037 | 2.82 |  |  |  |
| Cc1nc2c(C(F)(F)F)cccc2c2c1O[C@]1(CC2)C[C@H]2C(=O)N[C@]3(C(=O)NS(=O)(=O)C4(C)CC4)C[C@H]3/C=C\CCCCC[C@H](NC(=O)OC(C)(C)C)C(=O)N2C1 [Example 44, tert-Butyl (1aR,3aS,3′R,9S,16aS,Z)-5′-methyl-1a-(1-methylcyclopropylsulfonylcarbamoyl)-3,8-dioxo-7′-(trifluoromethyl)-1a,1′,2,2′,3,3a,4,6,8,9,10,11,12,13,14,16a-hexadecahydro-1H-spiro[cyclopropa[e]pyrrolo[1,2-a][1,4]diazacyclopentadecine-5,3′-pyrano[2,3-c]quinoline]-9-ylcarbamate] |  |  | 0.104 | 1.6 |  |
| COc1ccc2nc(C)c3c(c2c1)CC[C@]1(C[C@H]2C(=O)N[C@]4(C(=O)NS(=O)(=O)C5(C)CC5)C[C@H]4CCCCCCC[C@H](NC(=O)OC(C)(C)C)C(=O)N2C1)O3 [Example 34, tert-Butyl ((2R,6S,13aR,14aR,16aS)-9′-methoxy-5′-methyl-14a-(((1-methylcyclopropyl)sulfonyl)carbamoyl)-5,16-dioxo-1′,2′,3,5,6,7,8,9,10,11,12,13,13a,14,14a,15, 16,16a-octadecahydro-1H-spiro[cyclopropa[e]pyrrolo[1,2-a][1,4]diazacyclopentadecine-2,3′-pyrano[2,3-c]quinolin]-6-yl)carbamate] |  |  | 0.013 | 1.79 |  |
| Cc1nc2ccccc2c2c1O[C@]1(CC2)C[C@H]2C(=O)N[C@]3(C(=O)NS(=O)(=O)C4(C)CC4)C[C@H]3/C=C\CCCCC[C@H](NC(=O)N(C(C)C)C(C)C)C(=O)N2C1 [Example 293, (2R,6S,12Z,13aS,14aR,16aS)-6-{[di(propan-2-yl)carbamoyl]amino}-5′-methyl-N-[(1-methylcyclopropyl)sulfonyl]-5,16-dioxo-1,1′,2′,6,7,8,9,10,11,13a,14,15,16,16a-tetradecahydrospiro[cyclopropa[e]pyrrolo[1,2-a][1,4]diazacyclopentadecine-2,3′-pyrano[2,3-c]quinoline]-14a(5H)-carboxamide] |  |  |  |  | IC50 [1, 4]: 0.021 nM; EC50 (HCV genotype 1b replicon; [5]): 4.87 nM |
| CC(C)COC(=O)N[C@H]1CCCCC/C=C\[C@@H]2C[C@@]2(C(=O)NS(=O)(=O)C2(C)CC2)NC(=O)[C@@H]2C[C@]3(CCc4c(c(C(F)(F)F)nc5ccccc45)O3)CN2C1=O [Example 160, 2-methylpropyl [(2R,6S,12Z,13aS,14aR,16aS)-14a-{[(1-methylcyclopropyl)sulfonyl]carbamoyl}-5,16-dioxo-5′-(trifluoromethyl)-1,1′,2′,5,6,7,8,9,10,11,13a,14,14a,15,16,16a-hexadecahydrospiro[cyclopropa[e]pyrrolo[1,2-a][1,4]diazacyclopentadecine-2,3′-pyrano[2,3-c]quinolin]-6-yl]carbamate] | 0.026 | 1.82 |  |  |  |
| COc1ccc2c3c(c(C4CC4)nc2c1)O[C@]1(CC3)C[C@H]2C(=O)N[C@]3(C(=O)NS(=O)(=O)C4(C)CC4)C[C@H]3/C=C\CCCCC[C@H](NC(=O)O[C@H]3C[C@@H](C)CC[C@@H]3C(C)C)C(=O)N2C1 [Example 275, (1S,2R,5S)-5-methyl-2-(propan-2-yl)cyclohexyl [(2R,6S,12Z,13aS,14aR,16aS)-5′-cyclopropyl-8′-methoxy-14a-{[(1-methylcyclopropyl)sulfonyl]carbamoyl}-5,16-dioxo-1,1′,2′,5,6,7,8,9,10,11,13a,14,14a,15,16,16a-hexadecahydrospiro[cyclopropa[e]pyrrolo[1,2-a][1,4]diazacyclopentadecine-2,3′-pyrano[2,3-c]quinolin]-6-yl]carbamate] |  |  |  |  | IC50 [1, 4]: 11.3 nM; EC50 (HCV genotype 1b replicon; [5]): 39.5 nM |
